PubChem BioAssay (NCI)
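Assay format: 96-well plates, 48-hour exposure. At the GI50, growth is halved. TGI denotes the concentration required for complete inhibition of growth.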

Legend:
Experiment in all cases: DTP human tumour cell line panel, 48 h
786-0 renal = system: 786-0 renal
A498 renal = system: A498 renal
A549 NSCLC = system: A549 NSCLC
ACHN renal = system: ACHN renal
BT-549 breast = system: BT-549 breast
CAKI-1 renal = system: CAKI-1 renal
CCRF-CEM leukemia = system: CCRF-CEM leukemia
COLO 205 colon = system: COLO 205 colon
DU-145 prostate = system: DU-145 prostate
EKVX NSCLC = system: EKVX NSCLC
HCC-2998 colon = system: HCC-2998 colon
HCT-116 colon = system: HCT-116 colon
HCT-15 colon = system: HCT-15 colon
HOP-62 NSCLC = system: HOP-62 NSCLC
HOP-92 NSCLC = system: HOP-92 NSCLC
HS 578T breast = system: HS 578T breast
HT29 colon = system: HT29 colon
IGROV1 ovarian = system: IGROV1 ovarian
K-562 leukemia = system: K-562 leukemia
KM12 colon = system: KM12 colon
LOX IMVI melanoma = system: LOX IMVI melanoma
M14 melanoma = system: M14 melanoma
MALME-3M melanoma = system: MALME-3M melanoma
MCF7 breast = system: MCF7 breast
MDA-MB-231 breast = system: MDA-MB-231 breast
MDA-MB-435 = system: MDA-MB-435
MOLT-4 leukemia = system: MOLT-4 leukemia
NCI-H226 lung = system: NCI-H226 lung

With `C=CCc1c(O)c(C(=O)/C=C/c2ccc(Cl)cc2)c(OC)c2ccoc12` as the compound, how does the GI50 (786-0 renal) read?
Its GI50 is 4.83 µM.

And the TGI (786-0 renal)?
The TGI was 18.6 µM.

What about the GI50 (A498 renal) of the same compound?
Its GI50 is 2.77 µM.

And the TGI (A498 renal)?
Its TGI is 13 µM.

What about the GI50 (A549 NSCLC) of the same compound?
Its GI50 is 4.7 µM.

And the TGI (A549 NSCLC)?
The TGI was 18.2 µM.

What about the GI50 (ACHN renal) of the same compound?
Its GI50 is 2.31 µM.

What about the TGI (ACHN renal) of the same compound?
The TGI was 6.17 µM.

And the GI50 (BT-549 breast)?
Its GI50 is 3 µM.

And the TGI (BT-549 breast)?
Its TGI is 11 µM.

What about the GI50 (CAKI-1 renal) of the same compound?
Its GI50 is 2.61 µM.

And the TGI (CAKI-1 renal)?
Its TGI is 11.6 µM.

And the GI50 (CCRF-CEM leukemia)?
Its GI50 is 3.33 µM.

And the TGI (CCRF-CEM leukemia)?
Its TGI is greater than 100 µM.

What about the GI50 (COLO 205 colon) of the same compound?
The GI50 was 4.44 µM.

And the TGI (COLO 205 colon)?
Its TGI is 15.5 µM.

And the GI50 (DU-145 prostate)?
The GI50 was 3.85 µM.

And the TGI (DU-145 prostate)?
The TGI was 18.1 µM.

And the GI50 (EKVX NSCLC)?
Its GI50 is 7.23 µM.

What about the TGI (EKVX NSCLC) of the same compound?
The TGI was 21.5 µM.

What about the GI50 (HCC-2998 colon) of the same compound?
The GI50 was 1.79 µM.

What about the TGI (HCC-2998 colon) of the same compound?
Its TGI is 3.26 µM.

And the GI50 (HCT-116 colon)?
Its GI50 is 2.74 µM.

What about the TGI (HCT-116 colon) of the same compound?
The TGI was 9 µM.

And the GI50 (HCT-15 colon)?
The GI50 was 3.4 µM.

And the TGI (HCT-15 colon)?
Its TGI is 12.9 µM.

And the GI50 (HOP-62 NSCLC)?
Its GI50 is 2.31 µM.

And the TGI (HOP-62 NSCLC)?
Its TGI is 5.76 µM.

And the GI50 (HOP-92 NSCLC)?
The GI50 was 1.69 µM.

And the TGI (HOP-92 NSCLC)?
The TGI was 5.94 µM.

And the GI50 (HS 578T breast)?
Its GI50 is 4.02 µM.

What about the TGI (HS 578T breast) of the same compound?
Its TGI is 42.4 µM.

What about the GI50 (HT29 colon) of the same compound?
The GI50 was 1.89 µM.

And the TGI (HT29 colon)?
Its TGI is 3.98 µM.

And the GI50 (IGROV1 ovarian)?
The GI50 was 3.46 µM.

What about the TGI (IGROV1 ovarian) of the same compound?
Its TGI is 14.9 µM.

And the GI50 (K-562 leukemia)?
Its GI50 is 3.25 µM.

What about the TGI (K-562 leukemia) of the same compound?
The TGI was greater than 100 µM.

And the GI50 (KM12 colon)?
The GI50 was 3.72 µM.

And the TGI (KM12 colon)?
Its TGI is 13 µM.

And the GI50 (LOX IMVI melanoma)?
Its GI50 is 1.63 µM.

What about the TGI (LOX IMVI melanoma) of the same compound?
The TGI was 3.08 µM.

And the GI50 (M14 melanoma)?
Its GI50 is 5.08 µM.

And the TGI (M14 melanoma)?
Its TGI is 29.2 µM.

And the GI50 (MALME-3M melanoma)?
Its GI50 is 2.74 µM.

And the TGI (MALME-3M melanoma)?
The TGI was 8.51 µM.

And the GI50 (MCF7 breast)?
Its GI50 is 2.51 µM.

What about the TGI (MCF7 breast) of the same compound?
Its TGI is 11.4 µM.

And the GI50 (MDA-MB-231 breast)?
The GI50 was 4.3 µM.

And the TGI (MDA-MB-231 breast)?
Its TGI is 16.8 µM.

And the GI50 (MDA-MB-435)?
The GI50 was 2.06 µM.

And the TGI (MDA-MB-435)?
Its TGI is 4.53 µM.

What about the GI50 (MOLT-4 leukemia) of the same compound?
Its GI50 is 2.61 µM.

And the TGI (MOLT-4 leukemia)?
The TGI was greater than 100 µM.

And the GI50 (NCI-H226 lung)?
Its GI50 is 1.52 µM.

And the TGI (NCI-H226 lung)?
Its TGI is 2.97 µM.
